Data set [1] concerns lorcaserin–saline-trained rats. The experiment in a line: Two-lever drug discrimination, lorcaserin (0.75 mg/kg) vs saline. The class given is in vivo, rat. The procedure:
(§1) Experimentally naïve male Sprague-Dawley rats (n = 43; Envigo, Inc.) weighing 300–325 g at the beginning of the experiment were housed two per cage in a temperature- (21–23°C) and humidity- (45–50%) controlled environment; lighting was maintained under a 12-h light–dark cycle (0700–1900 h). Rats were maintained at 80–90% of their free-feeding weights by restricting access to water. Rats received water during daily training sessions (5–6 ml/rat/session), in the afternoon several hours after training (20 min), and over the weekend (36 h). Experiments were conducted during the light phase of the light–dark cycle (between 0900 and 1200 h) and were carried out in accordance with the National Institutes of Health Guide for the Care and Use of Laboratory Animals and with the approval of the Institutional Animal Care and Use Committee at University of Texas Medical Branch.
(§2) The procedures were conducted in commercially available two-lever operant chambers (Med Associates, St. Albans, VT). Each chamber was equipped with a water-filled dispenser mounted equidistantly between two retractable response levers on the wall and housed in a light- and soundproof cubicle. Illumination came from a 28-V house light; ventilation and masking noise were provided by a ventilation fan in the right-side wall. A computer with Med-PC IV software was used to run programs and record all experimental events.
(§3) Standard two-lever, water-reinforced drug discrimination procedures were used ([Appel and Cunningham, 1986]; [Callahan and Cunningham, 1995]; [Colpaert, 1999]). Three cohorts (n = 13–16/cohort) were trained to discriminate an injection of a training drug from saline (1.0 ml/kg, i.p.) administered 15 min before start of daily (Monday–Friday) training sessions. In one cohort (n = 14), rats were trained to discriminate the training drug lorcaserin (0.75 mg/kg, 1.0 ml/kg, i.p.) from saline. In a second cohort (n = 13), rats were trained to discriminate the training drug WAY163909 (0.75 mg/kg, 1.0 ml/kg, i.p.) from saline. In the third cohort, rats (n = 16) were trained to discriminate the training drug cocaine (5 mg/kg, 1.0 ml/kg, i.p.) from saline. Two rats in the lorcaserin–saline cohort were excluded from the present study due to failure to maintain the discrimination. Rats in the WAY163909–saline cohort also participated in additional studies ([Wild et al., 2018]); the WAY163909 dose–response curve was reevaluated between studies; a washout period was allowed, and no carryover effects were observed.
(§4) During this phase, only the stimulus-appropriate (drug or saline) lever was present. Training began under a fixed ratio 1 (FR 1) schedule of water reinforcement, and the FR requirement was incremented until all animals were responding reliably under an FR 20 schedule for each experimental condition. For half of the rats, left lever responses were reinforced after training drug administration, whereas right lever responses were reinforced after saline administration; conditions were reversed for the remaining animals. During this phase of training, drug and saline were administered irregularly with the restriction that neither condition prevailed for more than three consecutive sessions.
(§5) After responding stabilized, both levers were presented simultaneously during 15-min training sessions. The rats were required to respond on the stimulus-appropriate (correct) lever to obtain water reinforcement. There were no programmed consequences for responding on the incorrect lever. This phase of training continued until the performance of all rats attained criterion (defined as mean accuracies of at least 80% stimulus-appropriate responding for 10 consecutive sessions).
(§6) Test sessions were initiated and conducted once or twice per week following attainment of criterion. Training sessions were run during the intervening days to maintain discrimination accuracy. […]

In data set [2] the test system is WAY163909–saline-trained rats. The experiment in a line: Two-lever drug discrimination, WAY163909 (0.75 mg/kg) vs saline. It is filed as in vivo, rat. The method, then: as §1, §2, §3, §4, §5, §6
Data set [3] relates to cocaine–saline-trained rats. Description: Two-lever drug discrimination, cocaine (5 mg/kg) vs saline. It is filed as in vivo, rat. Conditions: for cocaine-lever responding, pretreatment before cocaine (2.5 mg/kg): lorcaserin 1 mg/kg (30 min) or SB242084 0.5 mg/kg (45 min) before test; for cocaine-lever responding in substitution test / response rate in substitution test: SB242084 0.5 mg/kg; for cocaine-lever responding in substitution test: cocaine 2.5 mg/kg, i.p. The procedure: as §1, §2, §3, §4, §5, §6

The subject of data set [4] is human unedited 5-HT2CR (h5-HT2CR-CHO cells). The class given is cell-based.
The mark [5] stands for this setting: vs previous cocaine maintenance session, lorcaserin 1 mg/kg, p < 0.05.

As to `C[C@H]1CNCCc2ccc(Cl)cc21` [lorcaserin, (1R)-8-chloro-2,3,4,5-tetrahydro-1-methyl-1H-3 benzazepine], in data set [1] (Rattus norvegicus, read-out: ED50 (dose predicted to elicit 50% lorcaserin-lever responding)), the ED50 was 0.54 mg/kg. In addition, the “response rates after training drug versus saline” value in data set [1] (training sessions, lorcaserin 0.75 mg/kg i.p., p < 0.05) is reported as “lower than rates after saline”. For the same compound, the “response rate in substitution test” value in data set [2] (lorcaserin 1 mg/kg (vs saline), TAT-r3L4F 1, 2 µmol/kg (vs previous WAY163909 maintenance session)) is on record as “suppressed response rates versus saline”; in data set [3] (setting [5]), “significant reduction in response rate”. The “substitution for WAY163909” value in data set [2] (substitution test, lorcaserin 1 mg/kg i.p.) is given as “full substitution”. Moreover, in data set [3] (TAT-r3L4F alone 1, 2 µmol/kg, lorcaserin alone 0.5 mg/kg, data not shown), the “lever responding in substitution test (low-dose series)” value is listed as “saline-appropriate responding”. The “full substitution evoked by cocaine (2.5 mg/kg) after lorcaserin (0.5 mg/kg) alone” value in data set [3] (combination test, lorcaserin 0.5 mg/kg + cocaine 2.5 mg/kg) was “not suppressed”. For the same compound, the “cocaine-lever responding, pretreatment before cocaine (2.5 mg/kg)” value in data set [3] (combination test) is reported as “significantly reduced cocaine lever-appropriate responding”. Moreover, the “response rate, pretreatment before cocaine (2.5 mg/kg)” value in data set [3] (combination test, lorcaserin 1 mg/kg, p < 0.05) is listed as “significantly reduced”. Also, the “behavioral disruption (failure to complete FR 20)” value in data set [3] (lorcaserin 1 mg/kg i.p. alone, two rats failed to complete the FR 20 schedule) is given as “induces behavioral disruption”. Also, the “cocaine-lever responding in substitution test” value in data set [3] (lorcaserin 1 mg/kg) is given as “engendered primarily saline-lever responding”. Also, the “response rates associated with cocaine (2.5 mg/kg)” value in data set [3] (lorcaserin alone 0.5 mg/kg, or TAT-r3L4F 1, 2 µmol/kg plus lorcaserin 0.5 mg/kg, p < 0.05) is “significantly suppressed the response rates”. Further, the “response rate in substitution test (low-dose series)” value in data set [3] (vs previous cocaine maintenance session, TAT-r3L4F alone 1, 2 µmol/kg, lorcaserin alone 0.5 mg/kg, data not shown) was “significant reduction in response rates”.
For the compound `Cc1cc2c(cc1Cl)N(C(=O)Nc1ccc(Oc3cccnc3C)nc1)CC2` [SB242084], the “lorcaserin (1 mg/kg)-mediated suppression of cocaine (2.5 mg/kg) lever responding and response rate after SB242084 pretreatment” value in data set [3] (SB242084 0.5 mg/kg + lorcaserin 1 mg/kg + cocaine 2.5 mg/kg) is “fully recovered”. The “cocaine-lever responding, pretreatment before cocaine (2.5 mg/kg)” value in data set [3] (combination test) was “did not alter cocaine lever-responding or response rate”. Besides, the “cocaine-lever responding in substitution test” value in data set [3] (lorcaserin 1 mg/kg) is “engendered primarily saline-lever responding”. Further, the “response rate in substitution test” value in data set [3] (setting [5]) was “slight but significant increase in response rate”.
With `COC(=O)[C@H]1[C@@H](OC(=O)c2ccccc2)C[C@@H]2CC[C@H]1N2C` [cocaine], the “cocaine-lever responding in substitution test” value in data set [3] (lorcaserin 1 mg/kg) is listed as “full substitution”. Also, the “response rates after training drug” value in data set [3] (training sessions, cocaine 5 mg/kg i.p., not statistically different from saline) was found to be 25.6 ± 0.55 min⁻¹.
`c1cc2c3c(c1)[C@H]1CCC[C@H]1N3CCNC2` [WAY163909, (7b-R,10a-R)-1,2,3,4,8,9,10,10a-octahydro-7bH-cyclopenta[b][1,4] diazepino [6,7,1hi] indole]: the substitution for lorcaserin entry in data set [1] (substitution test, WAY163909 0.75 mg/kg i.p., full substitution = ≥80% drug-appropriate responding) is “full substitution”. The “response rate in substitution test” value in data set [1] (vs previous lorcaserin maintenance session, WAY163909 0.75 mg/kg, TAT-r3L4F 2 µmol/kg (trend for 1 µmol/kg)) is “suppressed response rates similar to the training drug”. In data set [2] (i.p., 15 min before test, 95% CI 0.51–0.61 mg/kg), the “ED50 (WAY163909-lever responding)” value was determined as 0.56 mg/kg. Also, the “response rates after training drug versus saline” value in data set [2] (training sessions, WAY163909 0.75 mg/kg i.p., p < 0.05) is recorded as “lower than rates after saline”.
As to “(S)-1-((S)-4-amino-2-((3S,4S)-4-((S)-1-((S)-1-carboxy-4-guanidinobutylamino)-1-oxo-propan-2-ylcarbamoyl)pyrrolidine-3-carboxamido)-4-oxobutanoyl)pyrrolidine-2-carboxylic acid [compound 7]”, the “potentiation of 5-HT-induced Cai2+ release (in words)” value in data set [4] (1 nM peptide, Welch's t-test vs 5-HT alone, α = 0.05) is recorded as “potentiated”. Moreover, the “EMAX (%5-HT)” value in data set [4] (maximum 5-HT-induced Cai2+ release in presence of 1 nM peptide derivative, 5-HT vehicle, 10^-11 to 10^-6 M, 5-HT alone = 100%, AUC normalised to crystal violet, mean ± SEM of 4–5 biological replicates, SEM) is recorded as 125 ± 5.2%. In addition, the “drug-lever responding in combination with lorcaserin (0.5 mg/kg)” value in data set [1] (combination test, i.p., TAT-r3L4F 2 µmol/kg (p < 0.05), peptide 7 2, 5 µmol/kg) is on record as “modestly, but not significantly, enhanced”. Besides, the “response rate in combination with lorcaserin (0.5 mg/kg)” value in data set [1] (combination test, i.p., TAT-r3L4F 2 µmol/kg, peptide 7 2, 5 µmol/kg) was “no change in rate”. In addition, in data set [1] (substitution test, i.p., TAT-r3L4F 1, 2 µmol/kg, peptide 7 1, 2, 5 µmol/kg (data not shown)), the drug-like responding is recorded as below 20%.
